Series [1] deals with MDA-MB-231 cells. As to the kind of experiment: Senescence assay (β-Galactosidase staining). Conditions: at GI50; 3 days or 14 days exposure; FIGS. 2 and 3. The class given is cell-based, human. On the procedure: MDA-MB-231 cells were seeded in 6-well plates (65,000 cells/well) and treated with the selected compounds at their respective GI50. At 3, 7 and 14 days after treatment cells were stained with Senescence β-Galactosidase Staining Kit (Cell Signaling) at 37° C. overnight. Blue coloured senescent cells were counted with an optical microscope. Medium and compounds were refreshed every 3 days.
Cell cycle arrest can be irreversible in case of senescence induction.

Series [2] deals with human cancer cell lines (MDA-MB-231, U87-MG, H460) and MCF10. Kind of series: Suppression of proliferation of human cancer cell lines, results in words. The class given is cell-based. Conditions: summary of Table 3. On the procedure:
48 h later cells were fixed with PFA 4% for 15 minutes, stained with 10 μg/ml Hoechst 33342 (Molecular Probes, Thermo Fisher) for 30 minutes and washed twice with PBS. Cells were imaged in a high content screening system (Opera Phoenix™, Perkin Elmer) using a 20× dry objective (30 fields/well). Cell counts were determined by the Opera software (Perkin Elmer) and data were further processed with SPSS software. GI50 was calculated by estimating the absolute IC50 using dose-response inhibition tool in Prism6 (Graphpad Software Inc.).
The cell growth inhibitions of the subject compounds were tested in multiple human cancer cell lines with wild-type Retinoblastoma protein: MDA-MB-231 (breast), U87-MG (glioblastoma), H460 (lung); and MCF10 (as an example of non-transformed human cells) and mutant cells.

Series [3] can be described thus: Toxicologic evaluation in vivo. Conditions: 50 or 100 mg/kg intraperitoneally twice a week for two weeks.

Take `CC(=O)c1c(C)c2cnc(Nc3ccc(N4CCC(CCCO)CC4)cc3)nc2n([C@@H]2CC3CCC2C3)c1=O` (stereo partly drawn) [PS008, 6-acetyl-8-((2R)-bicyclo[2.2.1]heptan-2-yl)-2-((4-(4-(3-hydroxypropyl)piperidin-1-yl)phenyl)amino)-5-methylpyrido[2,3-d]pyrimidin-7(8H)-one]: the “SA-βGAL staining (senescence induction)” value in series [1] is recorded as “induced high levels of SA-βGAL staining”.

As to `O=c1ccc2cnc(Nc3ccc(N4CCC(CCCO)CC4)cc3F)nc2n1[C@@H]1CC2CCC1C2` (stereo partly drawn) [PS002, 8-((2R)-bicyclo[2.2.1]heptan-2-yl)-2-((2-fluoro-4-(4-(3-hydroxypropyl)piperidin-1-yl)phenyl)amino)pyrido[2,3-d]pyrimidin-7(8H)-one], the “suppression of cell proliferation” value in series [2] is listed as “exception”.

`O=c1ccc2cnc(Nc3ccc(N4CCC(CCCO)CC4)cc3)nc2n1C1CC2CCC1C2` (stereo not drawn) [PD-0183812, reference compound]: the “SA-βGAL staining (senescence induction)” value in series [1] is given as “induced high levels of SA-βGAL staining”. Moreover, in series [3], the “histopathology of the bone marrow” value was “hypoplasia/reactive bone marrow”, the “histopathology of the intestine” value is “aberrant mitotic figures” and the “histopathology of the spleen” value is given as “active extramedullar hematopoiesis”. For the same molecule, the “lung toxicity (hemorrhage in the lungs), mice affected” value in series [3] (FIG. 11) is 6 out of 6. In addition, the mouse weight result in series [3] (vs DMSO, FIG. 10) is recorded as “induced significant weight loss”.

Consider `O=c1ccc2cnc(Nc3ccc(N4CCC(CCCO)CC4)c(F)c3)nc2n1[C@@H]1CC2CCC1C2` (stereo partly drawn) [PS003, 8-((2R)-bicyclo[2.2.1]heptan-2-yl)-2-((3-fluoro-4-(4-(3-hydroxypropyl)piperidin-1-yl)phenyl)amino)pyrido[2,3-d]pyrimidin-7(8H)-one], for which the “SA-βGAL staining (senescence induction)” value in series [1] is on record as “induced high levels of SA-βGAL staining”.

For the origin of these results see patent publication US20230042936A1, “PYRIDO[2,3-d]PYRIMIDIN-7(8H)-ONES AS CDK INHIBITORS” (PROSENESTAR LLC, priority 2020, published 2023).
